Measured values as given in patent publication US8952024B2, “Herbicidal pyrimidone derivatives” (E I du Pont de Nemours and Company, priority 2009, dated 2015).

Columns and labels:
Test in all cases: Test B pre-/postemergence plant response
Assay type in all cases: in vivo
[1] = system: large crabgrass (Digitaria sanguinalis)
In short: (§1)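 Test compounds, formulated in a non-phytotoxic solvent mixture with surfactant, are applied to the soil surface (loam and sand blend) right after seeding, or sprayed over plants at the 1- to 4-leaf stage grown in peat moss/vermiculite medium. After 13 to 15 days under glasshouse conditions, each species is scored visually from 0 (no effect) to 100 (complete control) against controls.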

[2] = system: Italian ryegrass (Lolium multiflorum)
In short: as §1

[3] = system: downy bromegrass (Bromus tectorum)
In short: as §1

kochia (Kochia scoparia) = system: kochia (Kochia scoparia)
In short: as §1

[4] = system: cocklebur (Xanthium strumarium)
In short: as §1

[5] = system: morningglory (Ipomoea coccinea)
In short: as §1

[6] = system: woolly cupgrass (Eriochloa villosa)
In short: as §1

[7] = system: wheat (Triticum aestivum)
In short: as §1

wild oat (Avena fatua) = system: wild oat (Avena fatua)
In short: as §1

[8] = system: ragweed (common ragweed, Ambrosia elatior)
In short: as §1

[9] = system: Surinam grass (Brachiaria decumbens)
In short: as §1

[10] = system: bermudagrass (Cynodon dactylon)
In short: as §1

[11] = system: blackgrass (Alopecurus myosuroides)
In short: as §1

[12] = 31 g ai/ha, postemergence, scale 0 to 100, 0 is no effect, 100 is complete control
[13] = 250 g ai/ha, Preemergence, 0 to 100 scale
[14] = Postemergence, 62 g ai/ha, scale 0 (no effect) to 100 (complete control), 13 to 15 days
[15] = Postemergence, 125 g ai/ha, visual rating after 13 to 15 days, scale 0 (no effect) to 100 (complete control)
[16] = Postemergence, 250 g ai/ha, scale 0 to 100 (0 no effect, 100 complete control)
[17] = Preemergence, 31 g ai/ha, scale 0 to 100 (0 no effect, 100 complete control)
[18] = Preemergence, 62 g ai/ha, scale 0 to 100 (0 no effect, 100 complete control)
[19] = Preemergence, 125 g ai/ha, scale 0 to 100, 0 no effect, 100 complete control

O=C1CCCC(O)=C1C(=O)c1cnc(-c2cccc(Cl)c2)n(-c2ccc(Cl)cc2)c1=O [Compound 64]
Plant response rating, Crabgrass, Large [1, 12]: 85
Plant response rating, Crabgrass, Large [1, 13]: 98
Plant response rating, Crabgrass, Large [1, 14]: 90
Plant response rating, Crabgrass, Large [1, 15]: 98
Plant response rating, Crabgrass, Large [1, 16]: 98
Plant response rating, Crabgrass, Large [1, 17]: 50
Plant response rating, Crabgrass, Large [1, 18]: 75
Plant response rating, Crabgrass, Large [1, 19]: 98
Plant response rating, Ryegrass, Italian [2, 12]: 0
Plant response rating, Ryegrass, Italian [2, 14]: 0
Plant response rating, Ryegrass, Italian [2, 15]: 0
Plant response rating, Ryegrass, Italian [2, 16]: 30
Plant response rating, Ryegrass, Italian [2, 17]: 0
Plant response rating, Ryegrass, Italian [2, 18]: 0
Plant response rating, Ryegrass, Italian [2, 19]: 0
Plant response rating, Bromegrass, Downy [3, 12]: 25
Plant response rating, Bromegrass, Downy [3, 13]: 0
Plant response rating, Bromegrass, Downy [3, 14]: 45
Plant response rating, Bromegrass, Downy [3, 15]: 60
Plant response rating, Bromegrass, Downy [3, 16]: 85
Plant response rating, Bromegrass, Downy [3, 17]: 0
Plant response rating, Bromegrass, Downy [3, 18]: 0
Plant response rating, Bromegrass, Downy [3, 19]: 0
Plant response rating, Kochia (kochia (Kochia scoparia); [12]): 50
Plant response rating, Kochia (kochia (Kochia scoparia); [13]): 95
Plant response rating, Kochia (kochia (Kochia scoparia); [14]): 55
Plant response rating, Kochia (kochia (Kochia scoparia); [15]): 80
Plant response rating, Kochia (kochia (Kochia scoparia); [16]): 80
Plant response rating, Kochia (kochia (Kochia scoparia); [17]): 0
Plant response rating, Kochia (kochia (Kochia scoparia); [18]): 0
Plant response rating, Kochia (kochia (Kochia scoparia); [19]): 45
Plant response rating, Cocklebur [4, 12]: 90
Plant response rating, Cocklebur [4, 13]: 70
Plant response rating, Cocklebur [4, 14]: 95
Plant response rating, Cocklebur [4, 15]: 95
Plant response rating, Cocklebur [4, 16]: 95
Plant response rating, Cocklebur [4, 17]: 0
Plant response rating, Cocklebur [4, 18]: 0
Plant response rating, Cocklebur [4, 19]: 10
Plant response rating, Morningglory [5, 12]: 80
Plant response rating, Morningglory [5, 14]: 80
Plant response rating, Morningglory [5, 15]: 85
Plant response rating, Morningglory [5, 16]: 90
Plant response rating, Morningglory [5, 17]: 0
Plant response rating, Morningglory [5, 18]: 0
Plant response rating, Morningglory [5, 19]: 0
Plant response rating, Cupgrass, Woolly [6, 12]: 75
Plant response rating, Cupgrass, Woolly [6, 13]: 10
Plant response rating, Cupgrass, Woolly [6, 14]: 95
Plant response rating, Cupgrass, Woolly [6, 15]: 98
Plant response rating, Cupgrass, Woolly [6, 16]: 98
Plant response rating, Cupgrass, Woolly [6, 17]: 0
Plant response rating, Cupgrass, Woolly [6, 18]: 0
Plant response rating, Cupgrass, Woolly [6, 19]: 0
Plant response rating, Wheat [7, 12]: 10
Plant response rating, Wheat [7, 14]: 15
Plant response rating, Wheat [7, 15]: 30
Plant response rating, Wheat [7, 16]: 55
Plant response rating, Wheat [7, 17]: 0
Plant response rating, Wheat [7, 18]: 0
Plant response rating, Wheat [7, 19]: 0
Plant response rating, Oat, Wild (wild oat (Avena fatua); [12]): 60
Plant response rating, Oat, Wild (wild oat (Avena fatua); [14]): 90
Plant response rating, Oat, Wild (wild oat (Avena fatua); [15]): 95
Plant response rating, Oat, Wild (wild oat (Avena fatua); [16]): 98
Plant response rating, Oat, Wild (wild oat (Avena fatua); [17]): 0
Plant response rating, Oat, Wild (wild oat (Avena fatua); [18]): 0
Plant response rating, Oat, Wild (wild oat (Avena fatua); [19]): 0
Plant response rating, Ragweed [8, 12]: 85
Plant response rating, Ragweed [8, 14]: 85
Plant response rating, Ragweed [8, 15]: 90
Plant response rating, Ragweed [8, 16]: 90
Plant response rating, Ragweed [8, 17]: 0
Plant response rating, Ragweed [8, 18]: 50
Plant response rating, Ragweed [8, 19]: 75
Plant response rating, Surinam Grass [9, 12]: 85
Plant response rating, Surinam Grass [9, 14]: 95
Plant response rating, Surinam Grass [9, 15]: 98
Plant response rating, Surinam Grass [9, 16]: 98
Plant response rating, Surinam Grass [9, 17]: 0
Plant response rating, Surinam Grass [9, 18]: 85
Plant response rating, Surinam Grass [9, 19]: 85
Plant response rating, Bermudagrass [10, 12]: 95
Plant response rating, Bermudagrass [10, 13]: 98
Plant response rating, Bermudagrass [10, 14]: 95
Plant response rating, Bermudagrass [10, 15]: 98
Plant response rating, Bermudagrass [10, 16]: 98
Plant response rating, Bermudagrass [10, 17]: 50
Plant response rating, Bermudagrass [10, 18]: 85
Plant response rating, Bermudagrass [10, 19]: 98
Plant response rating, Blackgrass [11, 12]: 0
Plant response rating, Blackgrass [11, 13]: 0
Plant response rating, Blackgrass [11, 14]: 0
Plant response rating, Blackgrass [11, 15]: 5
Plant response rating, Blackgrass [11, 16]: 15
Plant response rating, Blackgrass [11, 17]: 0
Plant response rating, Blackgrass [11, 18]: 0
Plant response rating, Blackgrass [11, 19]: 0
